{"source": "patent US20260193317A1", "about": "“COMBINATION THERAPY WITH ACTRIIB RECEPTOR VARIANTS AND GLP-1 AGONISTS” (35PHARMA Inc., priority 2023, published 2026)", "assay_type_in_all_cases": "in vivo", "key": {"[1]": {"test": "Coformulation of P1372 and semaglutide: weight and body composition in mice (FIG. 18)"}, "[2]": {"tested_on": "follicle-stimulating hormone (FSH)", "test": "Circulating FSH levels in CD-1 mice", "settings": "single s.c. injection, P1229 50 mg/kg, semaglutide 2 mg/kg", "method": "Finally, circulating FSH levels were assessed throughout the study (FIG. 20D). […] This confirms that the expected pharmacodynamic effect of P1229 was not altered in the context of the co-formulation."}, "[3]": {"test": "Single subcutaneous injection in CD-1 mice: body weight", "settings": "CD-1 male mice, single s.c. injection; P1229 50 mg/kg, semaglutide 2 mg/kg"}, "[4]": {"tested_on": "DIO mice", "test": "Body composition in high fat diet mice, alone and in combination with incretin mimetics", "settings": "for Fat mass (% change from baseline) / Lean mass (% change from baseline): as E44, NMR", "protocol": "Experiments were performed in vivo to investigate the potential for additive or synergistic effects between exemplary ActRIIB-ECD polypeptide constructs and incretin mimetics."}}}
{"substance": "semaglutide [reference compound]", "values": [{"measurement": "lean muscle mass", "setting": "[1]; 3 weeks", "value": "significant loss of lean muscle mass"}, {"measurement": "total weight loss", "setting": "[1]; 3 weeks after treatment", "value": "significant weight loss"}, {"measurement": "decrease of circulating FSH levels", "setting": "[2]", "value": "did not show a significant effect"}, {"measurement": "body weight", "setting": "[3]", "value": "decreased body weight"}, {"measurement": "Body weight (% change from baseline)", "setting": "[4]; DIO mice, 21 days s.c., P1307 20 mg/kg weekly, P1229 40 mg/kg twice weekly, semaglutide 40 μg/kg daily, tirzepatide 45 μg/kg daily, alone or combined", "value": "−17.5", "unit": "%"}, {"measurement": "visceral, epididymal, pericardial, peri-renal, and retroperitoneal white adipose tissue weights", "setting": "[4]; DIO mice, D21", "value": "significantly decreased all white adipose tissue weights"}, {"measurement": "gastrocnemius and tibialis anterior weights", "setting": "[4]; DIO mice, D21, P1229 with or without caloric restriction", "value": "no significant effect on muscle weights"}, {"measurement": "Fat mass (% change from baseline)", "setting": "[4]", "value": "−30.3", "unit": "%"}, {"measurement": "Lean mass (% change from baseline)", "setting": "[4]", "value": "−10.6", "unit": "%"}, {"measurement": "Fat mass (% change from baseline)", "setting": "[4]; listed as semaglutide", "value": "−30.3", "unit": "%"}, {"measurement": "Lean mass (% change from baseline)", "setting": "[4]; listed as semaglutide", "value": "−10.6", "unit": "%"}]}
